The text below walks through data of ChEMBL document CHEMBL1150545, “CP-71,362, an unusually potent inhibitor of rat and dog renin” (Bioorg Med Chem Lett, 1994).

*1 amine or outer side, *2 acyl side, *3 side chain or, on linkers, in order; H or OH if unused. Where a SMILES comes first, the peptide text is derived from it. [ ]: non-standard residue; d: D form. The star is where a group is joined. X1 = CC(C)C[C@H](C[C@H](O)[C@H](CC1CCCCC1)N[*:1])C(=O)[*:2]; Boc = CC(C)(C)OC(=O)*

Assay [1] concerns Canis familiaris. As to the kind of experiment: Decrease in mean arterial pressure in anesthetized, sodium depleted dogs, at 3.7+/0.4 ug/Kg/min infusion rate. It counts as functional, Canis lupus familiaris, Artery.
The species named for assay [2] is Canis familiaris. As to the kind of experiment: Infusion rate producing half of the maximal decrease in renin dependent blood pressure in dogs. It counts as functional, Canis lupus familiaris.
For assay [3], the species on record is Rattus norvegicus. Nature of the assay: Infusion rate producing a decrease in MAP of between 30 and 40 mmHg in the rat. It counts as functional.
The species named for assay [4] is Rattus norvegicus. Nature of the assay: Infusion rate producing half of the maximal decrease in renin dependent blood pressure in rats. It counts as functional.
Assay [5] deals with T1, Renin (Homo sapiens, UniProt P00797).
T1 sequence (P00797 whole entry): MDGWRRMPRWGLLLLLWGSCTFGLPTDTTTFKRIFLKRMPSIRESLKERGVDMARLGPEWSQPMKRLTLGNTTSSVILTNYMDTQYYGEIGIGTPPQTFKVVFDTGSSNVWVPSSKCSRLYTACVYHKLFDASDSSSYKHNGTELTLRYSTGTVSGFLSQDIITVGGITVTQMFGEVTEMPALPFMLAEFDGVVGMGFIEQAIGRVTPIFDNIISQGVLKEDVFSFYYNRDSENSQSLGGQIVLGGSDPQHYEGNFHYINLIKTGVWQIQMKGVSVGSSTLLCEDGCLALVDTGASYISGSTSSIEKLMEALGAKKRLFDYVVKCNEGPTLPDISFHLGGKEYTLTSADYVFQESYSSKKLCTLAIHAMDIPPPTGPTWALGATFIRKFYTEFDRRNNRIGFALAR
As to the kind of experiment: Compound was tested for its inhibitory activity against human plasma renin. The assay is classed as cell-free.

The target in assay [6] is T2, Renin (Rattus norvegicus, UniProt P08424).
T2 sequence (P08424 whole entry): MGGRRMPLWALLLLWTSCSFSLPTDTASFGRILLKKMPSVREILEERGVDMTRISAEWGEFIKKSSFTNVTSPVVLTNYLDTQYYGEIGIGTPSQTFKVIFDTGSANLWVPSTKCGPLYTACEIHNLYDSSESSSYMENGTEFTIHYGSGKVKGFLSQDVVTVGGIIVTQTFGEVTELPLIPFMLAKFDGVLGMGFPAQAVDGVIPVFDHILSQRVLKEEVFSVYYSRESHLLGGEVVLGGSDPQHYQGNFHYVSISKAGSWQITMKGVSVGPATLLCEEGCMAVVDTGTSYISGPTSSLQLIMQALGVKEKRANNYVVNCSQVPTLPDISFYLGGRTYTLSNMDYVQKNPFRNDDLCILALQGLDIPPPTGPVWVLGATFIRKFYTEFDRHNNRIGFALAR
As to the kind of experiment: Compound was tested for its inhibitory activity against Rat plasma renin. It counts as cell-free.

The next assay concerns the target Renin (Canis familiaris). As to the kind of experiment: Compound was tested for its inhibitory activity against dog plasma renin.

Consider `CC(=O)O.CC(C)C[C@H](C[C@H](O)[C@H](CC1CCCCC1)NC(=O)[C@H](Cc1c[nH]cn1)NC(=O)[C@H](Cc1ccccc1)NC(=O)OC(C)(C)C)C(=O)N[C@@H](CCCCN)C(=O)N[C@@H](Cc1ccccc1)C(=O)O` (Boc-FH[X1]KF-OH), for which the MAP in the assay on Canis familiaris [1] was 35 mmHg. For the same molecule, the Infusion rate in the assay filed under Canis familiaris [2] was 1.1 µg/min/kg; in the assay listed under Rattus norvegicus [3] it was 30 µg/min/kg; in the assay listed under Rattus norvegicus [4], 9.7 µg/min/kg. Besides, the IC50 against Renin [5] was determined as 20 nM; on Renin [6] it was 3 nM; against Renin (Canis familiaris) it was 0.03 nM.
